# Laboratory results as given in US12043632B2, “6-heteroaryloxy benzimidazoles and azabenzimidazoles as JAK2 inhibitors” (Ajax Therapeutics, Inc., priority 2020, dated 2024).
# Biological target: T1, JAK2 (JH1domain-catalytic, Y1007F,Y1008F) kinase (Homo sapiens, UniProt O60674, Y1007F/Y1008F)
# T1 construct: JAK2 (JH1domain-catalytic, Y1007F,Y1008F) kinase was expressed as N-terminal fusion; made in house; host or cells: transiently transfected HEK293 cells
# Experiment: JAK2 JH1 Domain Binding Assay
# Settings: qPCR readout
# T1 sequence (O60674 849-1124 Y1007F/Y1008F limits assumed): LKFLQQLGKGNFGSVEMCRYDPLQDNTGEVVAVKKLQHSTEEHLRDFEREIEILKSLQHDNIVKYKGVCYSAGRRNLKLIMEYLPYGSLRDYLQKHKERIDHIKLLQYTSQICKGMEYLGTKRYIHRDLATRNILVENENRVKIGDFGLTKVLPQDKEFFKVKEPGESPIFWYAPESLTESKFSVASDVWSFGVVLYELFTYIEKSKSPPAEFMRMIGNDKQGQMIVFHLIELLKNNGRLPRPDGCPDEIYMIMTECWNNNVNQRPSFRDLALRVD
row,Compound,Kd
1,"Cn1cc(C(F)(F)F)cc(Nc2nc3ncc(Oc4cnn5ccn(C)c(=O)c45)c(Cl)c3n2C)c1=O [Example I-323, 3-((7-chloro-1-methyl-2-((1-methyl-2-oxo-5-(trifluoromethyl)-1,2-dihydropyridin-3-yl)amino)-1H-imidazo[4,5-b]pyridin-6-yl)oxy)-5-methylpyrazolo[1,5-a]pyrazin-4(5H)-one]",10 to 50 nM
2,"CNc1cn2ncc(Oc3cnc4nc(Nc5cc(C(F)(F)F)cn(-c6cccnc6)c5=O)n(C)c4c3Cl)c2cn1 [Example I-324, 3-((7-chloro-1-methyl-6-((6-(methylamino)pyrazolo[1,5-a]pyrazin-3-yl)oxy)-1H-imidazo[4,5-b]pyridin-2-yl)amino)-5-(trifluoromethyl)-2H-[1,3′-bipyridin]-2-one]",50 to 1000 nM
3,"[2H]C([2H])([2H])n1cc(C(F)(F)F)cc(Nc2nc3ncc(Oc4cnn5cc(NC)ncc45)c(Cl)c3n2C)c1=O [Example I-325, 3-((7-chloro-1-methyl-6-((6-(methylamino)pyrazolo[1,5-a]pyrazin-3-yl)oxy)-1H-imidazo[4,5-b]pyridin-2-yl)amino)-1-(methyl-d3)-5-(trifluoromethyl)pyridin-2(1H)-one]",10 to 50 nM
4,"Cn1c(Nc2cc(C(F)(F)F)n(C3CC4(COC4)C3)n2)nc2ncc(Oc3cnc4[nH]ncc4c3)c(C#N)c21 [Example I-330, 6-((1H-pyrazolo[3,4-b]pyridin-5-yl)oxy)-2-((1-(2-oxaspiro[3.3]heptan-6-yl)-5-(trifluoromethyl)-1H-pyrazol-3-yl)amino)-1-methyl-1H-imidazo[4,5-b]pyridine-7-carbonitrile]",< 10 nM
5,"CNc1cn2ncc(Oc3cnc4nc(Nc5cc(OC[C@@H]6CCCN6C)cc(C(F)(F)F)c5)n(C)c4c3Cl)c2cn1 [Example I-331, (S)-7-chloro-1-methyl-6-((6-(methylamino)pyrazolo[1,5-a]pyrazin-3-yl)oxy)-N-(3-((1-methylpyrrolidin-2-yl)methoxy)-5-(trifluoromethyl)phenyl)-1H-imidazo[4,5-b]pyridin-2-amine]",< 10 nM
6,"CNc1cn2ncc(Oc3cnc4nc(Nc5cc(OC[C@H]6CCCN6C)cc(C(F)(F)F)c5)n(C)c4c3Cl)c2cn1 [Example I-332, (R)-7-chloro-1-methyl-6-((6-(methylamino)pyrazolo[1,5-a]pyrazin-3-yl)oxy)-N-(3-((1-methylpyrrolidin-2-yl)methoxy)-5-(trifluoromethyl)phenyl)-1H-imidazo[4,5-b]pyridin-2-amine]",< 10 nM
7,"Cn1cc(C(F)(F)F)cc(Nc2nc3ncc(Oc4cnc5[nH]nc(C(F)(F)F)c5c4)c(C#N)c3n2C)c1=O [Example I-333, 1-methyl-2-((1-methyl-2-oxo-5-(trifluoromethyl)-1,2-dihydropyridin-3-yl)amino)-6-((3-(trifluoromethyl)-1H-pyrazolo[3,4-b]pyridin-5-yl)oxy)-1H-imidazo[4,5-b]pyridine-7-carbonitrile]",10 to 50 nM
8,"Cn1cc(C(F)(F)F)cc(Nc2nc3ncc(Oc4cnc5[nH]ccc5c4F)c(C#N)c3n2C)c1=O [Example I-335, 6-((4-fluoro-1H-pyrrolo[2,3-b]pyridin-5-yl)oxy)-1-methyl-2-((1-methyl-2-oxo-5-(trifluoromethyl)-1,2-dihydropyridin-3-yl)amino)-1H-imidazo[4,5-b]pyridine-7-carbonitrile]",< 10 nM
9,"Cn1cc(C(F)(F)F)cc(Nc2nc3ncc(Oc4cnn5cc(OCCN6CCOCC6)ccc45)c(C#N)c3n2C)c1=O [Example I-336, 1 1-methyl-2-((1-methyl-2-oxo-5-(trifluoromethyl)-1,2-dihydropyridin-3-yl)amino)-6-((6-(2-morpholinoethoxy)pyrazolo[1,5-a]pyridin-3-yl)oxy)-1H-imidazo[4,5-b]pyridine-7-carbonitrile]",< 10 nM
10,"Cn1cc(C(F)(F)F)cc(Nc2nc3ncc(Oc4cnc5[nH]nc(C6CC6)c5c4)c(C#N)c3n2C)c1=O [Example I-337, 6-((3-cyclopropyl-1H-pyrazolo[3,4-b]pyridin-5-yl)oxy)-1-methyl-2-((1-methyl-2-oxo-5-(trifluoromethyl)-1,2-dihydropyridin-3-yl)amino)-1H-imidazo[4,5-b]pyridine-7-carbonitrile]",< 10 nM
11,"CNc1cn2ncc(Oc3cnc4nc(Nc5cc(C(F)(F)F)n([C@@H]6CCOC6)n5)n(C)c4c3Cl)c2cn1 [Example I-340, (R)-7-chloro-1-methyl-6-((6-(methylamino)pyrazolo[1,5-a]pyrazin-3-yl)oxy)-N-(1-(tetrahydrofuran-3-yl)-5-(trifluoromethyl)-1H-pyrazol-3-yl)-1H-imidazo[4,5-b]pyridin-2-amine]",< 10 nM

# Further lines, results first:
row,Kd,Compound
1,10 to 50 nM,"CNc1ccc2c(Oc3cnc4nc(Nc5cc(C(F)(F)F)cn(C)c5=O)n(C)c4c3)cnn2c1 [Example I-320, 1-methyl-3-((1-methyl-6-((6-(methylamino)pyrazolo[1,5-a]pyridin-3-yl)oxy)-1H-imidazo[4,5-b]pyridin-2-yl)amino)-5-(trifluoromethyl)pyridin-2(1H)-one]"
2,< 10 nM,"CNc1cn2ncc(Oc3cnc4nc(Nc5cc(C(F)(F)F)cn(C6CC6)c5=O)n(C)c4c3Cl)c2cn1 [Example I-321, 3-((7-chloro-1-methyl-6-((6-(methylamino)pyrazolo[1,5-a]pyrazin-3-yl)oxy)-1H-imidazo[4,5-b]pyridin-2-yl)amino)-1-cyclopropyl-5-(trifluoromethyl)pyridin-2(1H)-one]"
3,10 to 50 nM,"Cn1c(Nc2cc(C(F)(F)F)n(C3CC4(COC4)C3)n2)nc2ncc(Oc3cnc4[nH]ccc4c3)c(C#N)c21 [Example I-322, 6-((1H-pyrrolo[2,3-b]pyridin-5-yl)oxy)-2-((1-(2-oxaspiro[3.3]heptan-6-yl)-5-(trifluoromethyl)-1H-pyrazol-3-yl)amino)-1-methyl-1H-imidazo[4,5-b]pyridine-7-carbonitrile]"
4,50 to 1000 nM,"CNc1cn2ncc(Oc3cnc4nc(Nc5ccc(CN6CCC(F)(F)C6)c(C(F)(F)F)c5)n(C)c4c3Cl)c2cn1 [Example I-326, 7-chloro-N-(4-((3,3-difluoropyrrolidin-1-yl)methyl)-3-(trifluoromethyl)phenyl)-1-methyl-6-((6-(methylamino)pyrazolo[1,5-a]pyrazin-3-yl)oxy)-1H-imidazo[4,5-b]pyridin-2-amine]"
5,10 to 50 nM,"CNc1cn2ncc(Oc3cnc4nc(Nc5cc(CN(C)C)cc(C(F)(F)F)c5)n(C)c4c3Cl)c2cn1 [Example I-327, 7-chloro-N-(3-((dimethylamino)methyl)-5-(trifluoromethyl)phenyl)-1-methyl-6-((6-(methylamino)pyrazolo[1,5-a]pyrazin-3-yl)oxy)-1H-imidazo[4,5-b]pyridin-2-amine]"
6,10 to 50 nM,"CNc1cn2ncc(Oc3cnc4nc(Nc5cc(C(F)(F)F)cn(-c6cnn(C)c6)c5=O)n(C)c4c3Cl)c2cn1 [Example I-328, 3-((7-chloro-1-methyl-6-((6-(methylamino)pyrazolo[1,5-a]pyrazin-3-yl)oxy)-1H-imidazo[4,5-b]pyridin-2-yl)amino)-1-(1-methyl-1H-pyrazol-4-yl)-5-(trifluoromethyl)pyridin-2(1H)-one]"
7,< 10 nM,"Cc1c[nH]c2ncc(Oc3cnc4nc(Nc5cc(C(F)(F)F)cn(C)c5=O)n(C)c4c3C#N)cc12 [Example I-329, 1-methyl-6-((3-methyl-1H-pyrrolo[2,3-b]pyridin-5-yl)oxy)-2-((1-methyl-2-oxo-5-(trifluoromethyl)-1,2-dihydropyridin-3-yl)amino)-1H-imidazo[4,5-b]pyridine-7-carbonitrile]"
8,10 to 50 nM,"Cc1c(Oc2cnc3nc(Nc4cc(C(F)(F)F)cn(C)c4=O)n(C)c3c2C#N)cnc2[nH]ccc12 [Example I-334, 1-methyl-6-((4-methyl-1H-pyrrolo[2,3-b]pyridin-5-yl)oxy)-2-((1-methyl-2-oxo-5-(trifluoromethyl)-1,2-dihydropyridin-3-yl)amino)-1H-imidazo[4,5-b]pyridine-7-carbonitrile]"
9,< 10 nM,"CNc1cn2ncc(Oc3cnc4nc(Nc5cc6n(n5)CCCC6(C)C)n(C)c4c3Cl)c2cn1 [Example I-338, 7-chloro-N-(4,4-dimethyl-4,5,6,7-tetrahydropyrazolo[1,5-a]pyridin-2-yl)-1-methyl-6-((6-(methylamino)pyrazolo[1,5-a]pyrazin-3-yl)oxy)-1H-imidazo[4,5-b]pyridin-2-amine]"
10,< 10 nM,"CNc1cn2ncc(Oc3cnc4nc(Nc5cc(-n6cnc(C)c6)cc(C(F)(F)F)c5)n(C)c4c3Cl)c2cn1 [Example I-339, 7-chloro-1-methyl-N-(3-(4-methyl-1H-imidazol-1-yl)-5-(trifluoromethyl)phenyl)-6-((6-(methylamino)pyrazolo[1,5-a]pyrazin-3-yl)oxy)-1H-imidazo[4,5-b]pyridin-2-amine]"
11,< 10 nM,"Cc1n[nH]c2ncc(Oc3cnc4nc(Nc5cc(C(F)(F)F)cn(C)c5=O)n(C)c4c3C#N)cc12 [Example I-341, 1-methyl-6-((3-methyl-1H-pyrazolo[3,4-b]pyridin-5-yl)oxy)-2-((1-methyl-2-oxo-5-(trifluoromethyl)-1,2-dihydropyridin-3-yl)amino)-1H-imidazo[4,5-b]pyridine-7-carbonitrile]"
12,10 to 50 nM,"Cn1c(Nc2ccc(CN3CCCC3)c(C(F)(F)F)c2)nc2ncc(Oc3cnn4ccncc34)c(C#N)c21 [Example I-342, 1-methyl-6-(pyrazolo[1,5-a]pyrazin-3-yloxy)-2-((4-(pyrrolidin-1-ylmethyl)-3-(trifluoromethyl)phenyl)amino)-1H-imidazo[4,5-b]pyridine-7-carbonitrile]"
13,10 to 50 nM,"CCn1c(C(C)(C)C)ncc(Nc2nc3ncc(Oc4cnn5cc(NC)ncc45)c(Cl)c3n2C)c1=O [Example I-345, 2-(tert-butyl)-5-((7-chloro-1-methyl-6-((6-(methylamino)pyrazolo[1,5-a]pyrazin-3-yl)oxy)-1H-imidazo[4,5-b]pyridin-2-yl)amino)-3-ethylpyrimidin-4(3H)-one]"
14,10 to 50 nM,"CNc1cn2ncc(Oc3cnc4nc(Nc5cc(C(C)(C)C)n([C@H]6CCN(C)C6)n5)n(C)c4c3Cl)c2cn1 [Example I-346, (S)—N-(5-(tert-butyl)-1-(1-methylpyrrolidin-3-yl)-1H-pyrazol-3-yl)-7-chloro-1-methyl-6-((6-(methylamino)pyrazolo[1,5-a]pyrazin-3-yl)oxy)-1H-imidazo[4,5-b]pyridin-2-amine]"
